pEC50: −log10 of the molar value. “Also recorded” adds a separate entry of the source. Residues, ends and D or L forms follow the SMILES beside them. *: point of attachment. Palmitoyl = CCCCCCCCCCCCCCCC(=O)*
Columns and labels:
[1] = molecular target: T1, mouse neutrophils (Mus musculus, UniProt O88536); experiment: Direct activation: superoxide release (isoluminol/HRP chemiluminescence), WT mouse bone marrow neutrophils; format: cell-based; details: for pEC50: approximate value given in running text
T1 sequence (O88536 1-351): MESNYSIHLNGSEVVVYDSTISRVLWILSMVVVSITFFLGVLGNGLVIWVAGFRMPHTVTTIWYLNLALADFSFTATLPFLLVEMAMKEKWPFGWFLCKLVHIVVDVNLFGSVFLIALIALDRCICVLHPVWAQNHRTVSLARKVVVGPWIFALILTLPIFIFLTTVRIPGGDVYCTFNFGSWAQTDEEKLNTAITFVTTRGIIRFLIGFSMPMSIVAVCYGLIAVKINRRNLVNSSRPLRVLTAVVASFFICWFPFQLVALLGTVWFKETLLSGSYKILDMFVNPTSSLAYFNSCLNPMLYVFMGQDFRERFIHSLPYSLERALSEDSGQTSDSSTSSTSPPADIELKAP
Description: (§1) Mice (8–12 weeks of age) were killed by cervical dislocation, the femurs and tibias were removed and freed of soft tissue attachments, and the extreme distal tip of each extremity was cut off. KRG without Ca^2+ and Mg^2+ (KRG-) was forced through the bone by using a 1-mL syringe with a 27-gauge needle. After dispersing cell clumps and removing the debris, the bone marrow granulocytes were isolated according to an earlier described procedure with some modifications. Briefly, a cell suspension in 2 mL of KRG- was laid on top of a three-layer Percoll gradient (1.095, 1.085, and 1.070 g/mL). The density of each Percoll solution was verified using density marker beads. After centrifugation at 500 × g for 30 min at 4°C in a swinging bucket rotor, the lowest band (1.085/1.095 g/mL interface) was collected as the neutrophil fraction. After washing with KRG-, remaining red blood cells were eliminated by hypotonic lysis. After a final wash with KRG-, the cells were resuspended in KRG. The cell number and population of bone marrow cells were determined by flow cytometry based on forward scatter (size) and side scatter (density) localization.
(§2) NADPH-oxidase activity was determined using an isoluminol and HRP-enhanced chemiluminescence (CL) system that allow for the determination of superoxide production. The CL activity was measured in a six-channel Biolumat LB 9505 apparatus (Berthold Co., Wildbad, Germany), using disposable 4-mL polypropylene tubes with 1 mL reaction mixture. The tubes contained 4 U HRP and 10 μg/mL isoluminol together with the cells that were equilibrated in the Biolumat for 5 min at 37°C, after which the stimulus solution (100 μL) was added. The light emission was recorded continuously over time and presented as superoxide production (in arbitrary light units, cpm x10^-6) as a function of time (min). The activity before stimulus addition was recorded as basal line and this activity was not changed in vehicle control samples. Since the FPR/Fpr-mediated superoxide production with respect to the onset and decline are very similar, the peak activities were used to compare the responses induced.
Naïve bone marrow cells produce very low levels of superoxide upon stimulation and to increase this production the cells were routinely primed for one hour at RT followed by TNF-α (10 ng/mL, final concentration) priming for a period of 20 min at 37°C [10]. The cells were then kept on ice until further analysis, as described above. The reason for choosing the chemiluminescence based NADPH-oxidase assay system was that very few cells are required, allowing us to monitor and quantify receptor-mediated events with the limited number of mouse bone marrow neutrophils available.
Data analysis was performed using Graph Pad Prism 7.0. The EC50/IC50 values were determined from experiments in which the activities were normalized to the response induced by maximal response or induced by agonist in the absence of inhibitor. The statistical analysis was performed on raw data using Student’s t-test when two groups were compared or one-way ANOVA with Dunnett’s multiple comparisons test in comparison to the control response when three groups were compared. * p ≤ 0.05 was considered significant.

[2] = tested on: human neutrophils; experiment: Direct activation: superoxide release (isoluminol/HRP chemiluminescence), human neutrophils; format: cell-based; details: 10^5 cells, 37°C, isoluminol/HRP CL, pepducin 1 μM
Description: (§3) Human peripheral blood neutrophils were isolated from buffy coats from healthy blood donors using dextran sedimentation and Ficoll-Paque gradient centrifugation as described. The remaining erythrocytes were disrupted by hypotonic lysis and the neutrophils were washed twice, suspended in KRG and, stored on melting ice until use. This isolation process permits cells to be purified with minimal granule mobilization. The buffy coats were obtained from the blood bank at Sahlgrenska University Hospital. Ethics approval was not needed since the buffy coats were provided anonymously and could not be traced back to a specific individual. This is in line with Swedish legislation section code 4§ 3p SFS 2003:460 (Lag om etikprövning av forskning som avser människor).
(§4) NADPH-oxidase activity was determined using an isoluminol and HRP-enhanced chemiluminescence (CL) system that allow for the determination of superoxide production. The CL activity was measured in a six-channel Biolumat LB 9505 apparatus (Berthold Co., Wildbad, Germany), using disposable 4-mL polypropylene tubes with 1 mL reaction mixture. […] The light emission was recorded continuously over time and presented as superoxide production (in arbitrary light units, cpm x10^-6) as a function of time (min). The activity before stimulus addition was recorded as basal line and this activity was not changed in vehicle control samples. […]

[3] = tested on: Fpr2^-/- neutrophils; experiment: Direct activation: superoxide release, Fpr2^-/- mouse neutrophils compared with WT; format: cell-based
Description: (§5) C57BL/6 wild-type mice were purchased from Charles River Laboratories and Fpr2^−/− mice generated as described previously, were generously provided by Dr Ji Ming Wang, Frederick National Laboratory for Cancer Research, USA. Mice were kept under standard temperature and light conditions and fed laboratory chow and water ad libitum, at the Department of Rheumatology and Inflammation Research, University of Gothenburg. Sex matched WT and Fpr2^-/- animals (age 8–10 weeks) were used to isolated bone marrow derived neutrophils. The studies performed were approved by the Ethical Committee for Animal Experimentation, Göteborg, Sweden.
(§6) Mice (8–12 weeks of age) were killed by cervical dislocation, the femurs and tibias were removed and freed of soft tissue attachments, and the extreme distal tip of each extremity was cut off. […] The cell number and population of bone marrow cells were determined by flow cytometry based on forward scatter (size) and side scatter (density) localization.
(§7) NADPH-oxidase activity was determined using an isoluminol and HRP-enhanced chemiluminescence (CL) system that allow for the determination of superoxide production. The CL activity was measured in a six-channel Biolumat LB 9505 apparatus (Berthold Co., Wildbad, Germany), using disposable 4-mL polypropylene tubes with 1 mL reaction mixture. […]

[4] = molecular target: T2, FPR2 (Homo sapiens, UniProt P25090); experiment: Inhibition of WKYMVM-induced superoxide release, human neutrophils; format: cell-based; details: pepducin 1 μM pre-incubated (mF2Pal16, F1Pal16: 5 min); WKYMVM 50 nM
T2 construct: Human peripheral blood neutrophils were isolated from buffy coats from healthy blood donors; endogenous in cells; host or cells: human peripheral blood neutrophils from buffy coats of healthy donors
T2 sequence (P25090 1-351): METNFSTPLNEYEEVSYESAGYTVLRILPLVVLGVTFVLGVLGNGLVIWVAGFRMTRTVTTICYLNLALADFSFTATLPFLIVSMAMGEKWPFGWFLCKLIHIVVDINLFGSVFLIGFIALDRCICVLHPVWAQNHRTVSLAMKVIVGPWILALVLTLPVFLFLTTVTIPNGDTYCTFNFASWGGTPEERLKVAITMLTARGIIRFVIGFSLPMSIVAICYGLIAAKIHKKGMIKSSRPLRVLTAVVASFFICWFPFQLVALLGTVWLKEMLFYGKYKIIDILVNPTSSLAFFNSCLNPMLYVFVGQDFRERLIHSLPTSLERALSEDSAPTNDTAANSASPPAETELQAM
Description: as §3
as §2, with “Since the FPR/Fpr-mediated superoxide production with respect to the onset and decline are very similar, the peak activities were used to compare the responses induced.” left out
(§8) Data analysis was performed using Graph Pad Prism 7.0. The EC50/IC50 values were determined from experiments in which the activities were normalized to the response induced by maximal response or induced by agonist in the absence of inhibitor. […]
Human neutrophils (10^5 cells) were pre-incubated without (solid line) or with mF2Pal16 (1 μM) for 5 min before stimulation with A) the FPR2 specific agonist WKYMVM (50 nM, indicated by the arrow). […] The release of superoxide anions was measured continuously. […]

[5] = tested on: FPR1; experiment: Inhibition of fMLF-induced superoxide release, human neutrophils; format: cell-based; details: pepducin 1 μM; fMLF 50 nM
Description: as §3, §4

[6] = molecular target: T1, mouse neutrophils; experiment: Receptor (cross-)desensitization, superoxide release, WT mouse neutrophils; format: cell-based; details: then pepducin 1 μM
Description: NADPH-oxidase activity was determined using an isoluminol and HRP-enhanced chemiluminescence (CL) system that allow for the determination of superoxide production [29, 30]. The CL activity was measured in a six-channel Biolumat LB 9505 apparatus (Berthold Co., Wildbad, Germany), using disposable 4-mL polypropylene tubes with 1 mL reaction mixture. The tubes contained 4 U HRP and 10 μg/mL isoluminol together with the cells that were equilibrated in the Biolumat for 5 min at 37°C, after which the stimulus solution (100 μL) was added. The light emission was recorded continuously over time and presented as superoxide production (in arbitrary light units, cpm x10^-6) as a function of time (min). […] Since the FPR/Fpr-mediated superoxide production with respect to the onset and decline are very similar, the peak activities were used to compare the responses induced.
The release of superoxide anions was continuously measured. […]

[7] = tested on: FPR2; experiment: Receptor preference in human neutrophils (FPR2 versus FPR1); format: cell-based; details: conclusion from superoxide release experiments
Description: as §3, §4

[8] = molecular target: T3, Fpr2 (Mus musculus, UniProt O88536); experiment: Receptor preference in mouse neutrophils (Fpr2 versus Fpr1); format: cell-based; details: conclusion from superoxide release, Fpr2^-/- cells, desensitization and inhibitors
T3 construct: WT mouse neutrophils (5 x 10^4 cells) were pre-incubated without (solid line) or with mF2Pal16; endogenous in cells; host or cells: bone marrow neutrophils of C57BL/6 wild-type mice, TNF-alpha primed
T3 sequence (O88536 1-351): T1 sequence (O88536 1-351)
Description: as §5, §6, §7

[9] = molecular target: T3, Fpr2; experiment: Inhibition of F2Pal16-induced superoxide release, WT mouse neutrophils; format: cell-based; details: Boc2 2 μM or peptidomimetic inhibitor 1 μM (five experiments), or mF2Pal16 500 nM against F2Pal16 500 nM (three experiments); 5 min pre-incubation
Description: as §1, §4, §8

[10] = molecular target: T3, Fpr2; parameters: method as in PMID 27614010; details: ref [12]; cited from earlier work
Description: When looking at the FPRs in different species it is clear that the receptor family has a complex evolutionary history, as illustrated by the fact that the number of genes in the family vary markedly in mouse and man. […] As different mouse models constitute important tools for translational studies aiming to understa ... || Genetically modified mouse strains and mouse disease models provide excellent tools to study the function of neutrophil FPRs in vivo. Such studies have indicated Fprs (in particular Fpr2) as important regulators of the physiological processes leading to resolution of inflammation. However, a direct translation of mouse data to human studies is hampered due to the distant phylogenetic relationship between mouse and human receptors. In addition to the different number of Fpr genes in mice and humans and an incomplete understanding of the evolutionary relationship between human FPRs ...

Molecule: CCCCCCCCCCCCCCCC(=O)N[C@@H](CCCCN)C(=O)N[C@H](C(=O)N[C@@H](Cc1c[nH]cn1)C(=O)N[C@@H](CCCCN)C(=O)N[C@@H](CCC(N)=O)C(=O)NCC(=O)N[C@@H](CC(C)C)C(=O)N[C@H](C(=O)N[C@@H](CCCCN)C(=O)N[C@@H](CO)C(=O)N[C@@H](CO)C(=O)N[C@@H](CCCNC(=N)N)C(=O)N1CCC[C@H]1C(=O)N[C@@H](CC(C)C)C(=O)N[C@@H](CCCNC(=N)N)C(=O)N[C@H](C(=O)O)C(C)C)[C@@H](C)CC)[C@@H](C)CC [F1Pal16] (Palmitoyl-KIHKQGLIKSSRPLRV-OH)
- pEC50 [1]: ~6.52

Molecule: CCCCCCCCCCCCCCCC(=O)N[C@@H](CCCCN)C(=O)N[C@H](C(=O)N[C@@H](Cc1c[nH]cn1)C(=O)N[C@@H](CCCCN)C(=O)N[C@@H](CCCCN)C(=O)NCC(=O)N[C@@H](CCSC)C(=O)N[C@H](C(=O)N[C@@H](CCCCN)C(=O)N[C@@H](CO)C(=O)N[C@@H](CO)C(=O)N[C@@H](CCCNC(=N)N)C(=O)N1CCC[C@H]1C(=O)N[C@@H](CC(C)C)C(=O)N[C@@H](CCCNC(=N)N)C(=O)N[C@H](C(=O)O)C(C)C)[C@@H](C)CC)[C@@H](C)CC [F2Pal16] (Palmitoyl-KIHKKGMIKSSRPLRV-OH)
- pEC50 [1]: ~6.52

Molecule: CCCCCCCCCCCCCCCC(=O)N[C@@H](CCCCN)C(=O)N[C@H](C(=O)N[C@@H](Cc1c[nH]cn1)C(=O)N[C@@H](CCCNC(=N)N)C(=O)N[C@@H](CCC(N)=O)C(=O)NCC(=O)N[C@@H](CC(C)C)C(=O)N[C@H](C(=O)N[C@@H](CCCCN)C(=O)N[C@@H](CO)C(=O)N[C@@H](CO)C(=O)N[C@@H](CCCNC(=N)N)C(=O)N1CCC[C@H]1C(=O)N[C@@H](CC(C)C)C(=O)N[C@@H](CCCNC(=N)N)C(=O)N[C@H](C(=O)O)C(C)C)[C@@H](C)CC)[C@@H](C)CC [mF1Pal16] (Palmitoyl-KIHRQGLIKSSRPLRV-OH; N-terminus and C-terminus assumed)
- superoxide release / activation of WT mouse neutrophils ([1]; WT mouse (C57BL/6) bone marrow neutrophils, TNF-α primed, 5 x 10^4 cells, 37°C, isoluminol/HRP CL, peak activity, pepducin 1 μM in figures): triggered activation of the NADPH-oxidase in mouse neutrophils
- relative potency, activation of WT mouse neutrophils ([1]; compared in words with derivatives or other pepducins, 1 μM in Figs 3, 6C, % of fMIFL (10 nM) peak, three independent experiments): much lower EC50 value as compared to that of F1Pal16
- superoxide release / activation of human neutrophils [2]: Human neutrophils were not activated; also recorded: does not activate human neutrophils to produce superoxide
- superoxide release in Fpr2^-/- neutrophils compared with WT ([3]; pepducin 1 μM, % of peak fMIFL (10 nM) response, p ≤ 0.05 significant): not abolished but significantly reduced
- effect on WKYMVM response, human neutrophils [4]: inhibited the response
- effect on fMLF response, human neutrophils [5]: did not affect the response
- response to second stimulation after PSMα2 ([6]; first PSMα2 50 nM): non-responsive to a second stimulation
- response to second stimulation after fMIFL ([6]; first fMIFL 10 nM): not fMIFL-stimulated cells were non-responsive
- receptor preference / modulation of FPR2 (versus FPR1) in human neutrophils [7]: very similar activities but with somewhat different potency; also recorded: preference for FPR2 over FPR1; also recorded: inhibits the FPR2 activity in human neutrophils; also recorded: negatively target human FPR2
- receptor preference / modulation of Fpr2 (versus Fpr1) in mouse neutrophils [8]: activates primarily Fpr2 in mouse neutrophils; also recorded: positively target the mouse Fpr2; also recorded: can act as an agonist for Fpr2

Molecule: Lau-(Lys-βNSpe)6-NH2
- effect of inhibitor on F2Pal16 response, WT mouse neutrophils [9]: significantly reduced

Molecule: WKYMVM [FPR2 specific agonist]
- activity at mouse Fprs (earlier work) [10]: low affinity for their mouse orthologous

Molecule: fMIFL [reference compound]
- fMIFL superoxide response in Fpr2^-/- versus WT neutrophils ([3]; fMIFL 10 nM, reference response): comparable in WT and Fpr2 deficient neutrophils
- activity at mouse Fprs (earlier work) [10]: potently and selectively activate Fpr1

Molecule: fMLF
- activity at mouse Fprs (earlier work) [10]: low affinity for their mouse orthologous
